Literature values, collected in patent US20240066021A1, “METHODS FOR OPTIMIZING CFTR-MODULATOR THERAPY” (Children's Hospital Medical Center, priority 2021, published 2024).
Read-outs that look alike come from different tables or passages of the source.

Key:
mTOR = mTOR (Homo sapiens, UniProt P42345); details: Target mTOR, Gene Symbol MTOR
HTR1B = HTR1B (Homo sapiens, UniProt P28222); details: Target HTR1B, Gene Symbol HTR1B
TXNRD1 = molecular target: T1, TXNRD1 (Homo sapiens, UniProt Q16881)
T1 sequence (Q16881 151-649 limits assumed): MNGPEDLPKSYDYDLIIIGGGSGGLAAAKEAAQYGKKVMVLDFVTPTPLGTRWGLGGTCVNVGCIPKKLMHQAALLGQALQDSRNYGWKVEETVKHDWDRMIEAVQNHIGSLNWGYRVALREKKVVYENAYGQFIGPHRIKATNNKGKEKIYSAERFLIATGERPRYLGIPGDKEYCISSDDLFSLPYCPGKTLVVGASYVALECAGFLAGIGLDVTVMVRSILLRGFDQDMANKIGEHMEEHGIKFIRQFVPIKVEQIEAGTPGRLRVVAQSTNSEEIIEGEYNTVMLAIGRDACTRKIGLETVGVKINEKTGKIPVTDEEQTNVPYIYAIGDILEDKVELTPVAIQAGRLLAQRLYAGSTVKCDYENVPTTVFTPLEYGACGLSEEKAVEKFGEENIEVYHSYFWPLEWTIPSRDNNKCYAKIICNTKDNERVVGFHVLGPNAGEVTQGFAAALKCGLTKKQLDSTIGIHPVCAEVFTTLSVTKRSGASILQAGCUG

NR2A = NR2A (Homo sapiens, UniProt Q12879)
Chain of NR2A (Q12879 23-1464, other chains not shown): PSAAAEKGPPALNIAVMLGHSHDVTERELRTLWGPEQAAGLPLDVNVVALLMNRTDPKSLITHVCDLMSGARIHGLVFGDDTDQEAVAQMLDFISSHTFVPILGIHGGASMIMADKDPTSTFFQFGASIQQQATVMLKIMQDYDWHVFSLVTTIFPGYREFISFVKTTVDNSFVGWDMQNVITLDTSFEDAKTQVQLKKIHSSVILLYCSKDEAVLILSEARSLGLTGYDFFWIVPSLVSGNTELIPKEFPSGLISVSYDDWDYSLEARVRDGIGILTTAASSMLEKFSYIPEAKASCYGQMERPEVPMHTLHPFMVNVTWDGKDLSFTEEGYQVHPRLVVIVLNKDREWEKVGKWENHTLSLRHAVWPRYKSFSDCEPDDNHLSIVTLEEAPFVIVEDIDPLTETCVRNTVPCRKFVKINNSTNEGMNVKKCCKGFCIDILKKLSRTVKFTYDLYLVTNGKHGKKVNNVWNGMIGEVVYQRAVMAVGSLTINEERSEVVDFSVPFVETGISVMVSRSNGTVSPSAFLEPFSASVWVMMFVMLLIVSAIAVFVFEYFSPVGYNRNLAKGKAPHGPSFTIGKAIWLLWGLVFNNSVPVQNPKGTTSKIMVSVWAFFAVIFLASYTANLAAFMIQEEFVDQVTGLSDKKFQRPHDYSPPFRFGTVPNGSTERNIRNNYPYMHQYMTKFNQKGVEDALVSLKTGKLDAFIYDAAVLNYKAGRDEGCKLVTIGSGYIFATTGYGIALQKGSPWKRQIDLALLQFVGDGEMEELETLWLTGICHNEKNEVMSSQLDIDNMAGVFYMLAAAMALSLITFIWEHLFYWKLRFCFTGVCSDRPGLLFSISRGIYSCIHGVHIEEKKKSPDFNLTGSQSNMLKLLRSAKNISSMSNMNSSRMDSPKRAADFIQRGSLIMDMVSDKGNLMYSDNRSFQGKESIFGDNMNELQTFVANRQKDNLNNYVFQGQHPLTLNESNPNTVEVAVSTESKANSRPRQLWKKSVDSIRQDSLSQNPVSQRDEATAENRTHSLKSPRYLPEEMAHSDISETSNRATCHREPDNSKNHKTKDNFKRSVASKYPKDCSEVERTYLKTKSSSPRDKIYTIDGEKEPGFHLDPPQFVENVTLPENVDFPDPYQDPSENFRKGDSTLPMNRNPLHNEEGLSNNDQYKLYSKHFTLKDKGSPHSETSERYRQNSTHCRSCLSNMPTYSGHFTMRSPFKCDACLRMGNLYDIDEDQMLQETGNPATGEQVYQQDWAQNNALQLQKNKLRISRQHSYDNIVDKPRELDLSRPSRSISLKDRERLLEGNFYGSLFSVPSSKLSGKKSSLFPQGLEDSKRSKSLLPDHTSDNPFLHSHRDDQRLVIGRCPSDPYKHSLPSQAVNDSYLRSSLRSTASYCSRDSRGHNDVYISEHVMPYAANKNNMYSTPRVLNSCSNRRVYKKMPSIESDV

Guanylatecyclase A(NPR1) = molecular target: T2, Guanylatecyclase A(NPR1) (Homo sapiens, UniProt P16066); details: Target Guanylatecyclase A(NPR1), Gene Symbol NPR1
T2 sequence (P16066 33-1061): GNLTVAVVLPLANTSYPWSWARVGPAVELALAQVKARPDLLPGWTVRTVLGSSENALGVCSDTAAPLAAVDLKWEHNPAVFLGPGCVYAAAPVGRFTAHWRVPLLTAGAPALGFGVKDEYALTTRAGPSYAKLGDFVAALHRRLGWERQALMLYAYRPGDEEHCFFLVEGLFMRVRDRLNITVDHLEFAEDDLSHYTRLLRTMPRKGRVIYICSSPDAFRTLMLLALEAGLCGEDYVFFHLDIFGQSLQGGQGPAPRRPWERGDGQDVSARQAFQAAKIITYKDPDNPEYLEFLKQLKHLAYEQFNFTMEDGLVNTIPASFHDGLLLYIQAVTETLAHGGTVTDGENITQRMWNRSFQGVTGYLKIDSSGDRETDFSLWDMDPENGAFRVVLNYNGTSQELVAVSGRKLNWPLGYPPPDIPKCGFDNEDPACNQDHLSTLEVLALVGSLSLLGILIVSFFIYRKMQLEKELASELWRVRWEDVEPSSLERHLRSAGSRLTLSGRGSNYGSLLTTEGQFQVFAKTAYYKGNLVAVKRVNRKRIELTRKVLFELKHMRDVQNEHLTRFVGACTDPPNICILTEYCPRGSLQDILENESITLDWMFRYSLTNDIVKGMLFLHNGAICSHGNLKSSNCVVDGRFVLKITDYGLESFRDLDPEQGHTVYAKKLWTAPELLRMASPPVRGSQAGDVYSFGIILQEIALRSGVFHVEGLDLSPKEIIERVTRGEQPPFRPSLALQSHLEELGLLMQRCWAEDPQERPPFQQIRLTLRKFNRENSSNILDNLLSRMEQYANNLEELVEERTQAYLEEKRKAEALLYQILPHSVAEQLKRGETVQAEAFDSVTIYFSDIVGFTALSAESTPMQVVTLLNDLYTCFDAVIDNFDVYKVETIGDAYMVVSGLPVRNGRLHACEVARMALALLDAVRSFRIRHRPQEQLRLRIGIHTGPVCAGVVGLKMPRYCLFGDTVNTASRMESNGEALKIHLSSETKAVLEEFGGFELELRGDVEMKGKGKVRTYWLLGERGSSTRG

NR2A/NR3A = NR2A/NR3A (Homo sapiens, UniProt Q12879)
Chain of NR2A/NR3A (Q12879 23-1464, other chains not shown): as the sequence (Q12879 23-1464, other chains not shown) above

IKK-beta = molecular target: T3, IKK-beta (Homo sapiens, UniProt O14920); details: Target IKK-beta, Gene Symbol IKBKB
T3 sequence (O14920 1-756): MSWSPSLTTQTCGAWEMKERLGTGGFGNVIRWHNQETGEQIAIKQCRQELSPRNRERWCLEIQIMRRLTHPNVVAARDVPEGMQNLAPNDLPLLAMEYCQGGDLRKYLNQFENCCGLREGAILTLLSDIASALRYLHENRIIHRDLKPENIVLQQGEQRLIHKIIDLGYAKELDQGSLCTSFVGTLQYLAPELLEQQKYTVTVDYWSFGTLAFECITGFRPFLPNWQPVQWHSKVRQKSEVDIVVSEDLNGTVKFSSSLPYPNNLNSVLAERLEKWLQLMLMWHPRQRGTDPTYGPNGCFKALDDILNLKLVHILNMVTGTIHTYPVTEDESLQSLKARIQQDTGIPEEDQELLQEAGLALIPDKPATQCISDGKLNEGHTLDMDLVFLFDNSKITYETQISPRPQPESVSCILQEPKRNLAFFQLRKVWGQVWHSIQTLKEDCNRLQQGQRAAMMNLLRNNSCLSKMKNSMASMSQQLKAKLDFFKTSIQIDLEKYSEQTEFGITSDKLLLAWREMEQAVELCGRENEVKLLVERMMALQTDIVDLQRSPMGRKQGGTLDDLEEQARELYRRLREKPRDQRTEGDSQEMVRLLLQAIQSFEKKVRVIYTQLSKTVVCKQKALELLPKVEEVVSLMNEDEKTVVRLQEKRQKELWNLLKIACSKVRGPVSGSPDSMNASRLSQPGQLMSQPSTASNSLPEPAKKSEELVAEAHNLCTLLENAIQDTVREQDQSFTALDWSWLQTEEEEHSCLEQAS

SCN2A = SCN2A (Homo sapiens, UniProt Q99250)
[1] = molecular target: PI3K catclass IB(p110-gamma) (Homo sapiens, UniProt P48736)
Chain of PI3K catclass IB(p110-gamma) (P48736 whole entry): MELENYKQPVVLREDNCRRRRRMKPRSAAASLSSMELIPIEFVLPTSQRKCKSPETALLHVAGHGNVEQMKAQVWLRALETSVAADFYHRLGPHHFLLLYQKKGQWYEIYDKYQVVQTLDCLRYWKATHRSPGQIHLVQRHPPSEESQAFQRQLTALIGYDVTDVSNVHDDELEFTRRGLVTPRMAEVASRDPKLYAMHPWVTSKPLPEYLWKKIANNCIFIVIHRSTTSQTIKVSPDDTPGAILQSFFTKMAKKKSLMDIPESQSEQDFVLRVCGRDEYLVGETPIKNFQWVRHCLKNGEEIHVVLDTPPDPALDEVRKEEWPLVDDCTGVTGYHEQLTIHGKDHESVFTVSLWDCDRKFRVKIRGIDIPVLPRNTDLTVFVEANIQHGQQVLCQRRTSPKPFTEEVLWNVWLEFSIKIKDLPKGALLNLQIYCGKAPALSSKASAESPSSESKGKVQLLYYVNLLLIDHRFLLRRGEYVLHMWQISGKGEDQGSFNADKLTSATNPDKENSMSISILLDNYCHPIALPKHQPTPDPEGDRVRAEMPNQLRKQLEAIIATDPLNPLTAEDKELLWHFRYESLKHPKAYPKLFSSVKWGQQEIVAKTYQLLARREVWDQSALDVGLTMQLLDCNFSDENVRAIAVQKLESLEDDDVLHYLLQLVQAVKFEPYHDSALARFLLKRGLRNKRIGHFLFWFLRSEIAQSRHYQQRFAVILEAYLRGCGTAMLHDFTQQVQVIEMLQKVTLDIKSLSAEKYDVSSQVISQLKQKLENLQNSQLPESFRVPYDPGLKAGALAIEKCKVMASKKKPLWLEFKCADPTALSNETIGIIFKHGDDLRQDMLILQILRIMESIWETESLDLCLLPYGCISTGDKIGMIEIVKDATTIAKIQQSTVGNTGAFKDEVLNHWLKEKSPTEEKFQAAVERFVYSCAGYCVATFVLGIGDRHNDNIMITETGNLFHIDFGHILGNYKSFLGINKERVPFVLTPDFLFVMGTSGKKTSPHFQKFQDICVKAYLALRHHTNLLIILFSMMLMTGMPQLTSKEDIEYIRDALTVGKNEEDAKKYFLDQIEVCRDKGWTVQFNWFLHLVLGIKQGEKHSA

[2] = test system: patients with at least one G551D mutation
[3] = test system: patients treated with ivacaftor versus patients untreated with CFTR modulators
[4] = Target NR2A, Gene Symbol GRIN2A
[5] = six months after drug initiation

Chain of HTR1B (P28222 whole entry): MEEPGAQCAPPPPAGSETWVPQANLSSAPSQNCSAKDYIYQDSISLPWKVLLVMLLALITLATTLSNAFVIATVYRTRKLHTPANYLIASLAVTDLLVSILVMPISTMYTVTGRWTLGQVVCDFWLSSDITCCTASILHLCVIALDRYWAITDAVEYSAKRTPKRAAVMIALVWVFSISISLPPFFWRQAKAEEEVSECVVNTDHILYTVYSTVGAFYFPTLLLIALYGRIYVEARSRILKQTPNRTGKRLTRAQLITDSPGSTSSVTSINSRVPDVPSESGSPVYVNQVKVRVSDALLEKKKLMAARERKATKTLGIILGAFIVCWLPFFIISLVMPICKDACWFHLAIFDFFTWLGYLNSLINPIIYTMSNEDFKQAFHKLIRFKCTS

COc1ccc(-c2ccc3c(N4CCOC[C@@H]4C)nc(N4CCOC[C@@H]4C)nc3n2)cc1CO [AZD8055]
Effect (mTOR): Inhibition

CN(C)CCc1c[nH]c2ccc(CS(=O)(=O)N3CCCC3)cc12 [Almotriptan]
Effect (HTR1B): Activation

CO[C@H]1C[C@@H]2CC[C@@H](C)[C@@](O)(O2)C(=O)C(=O)N2CCCC[C@H]2C(=O)O[C@H]([C@H](C)C[C@@H]2CC[C@@H](OCCO)[C@H](OC)C2)CC(=O)[C@H](C)/C=C(\C)[C@@H](O)[C@@H](OC)C(=O)[C@H](C)C[C@H](C)/C=C/C=C/C=C/1C [Everolimus]
Effect (mTOR): Inhibition

Cn1c(COP(=O)(NCCBr)NCCBr)cnc1[N+](=O)[O-] [Evofosfamide]
Effect (TXNRD1): Inhibition

CN[C@@H]1CCc2[nH]c3ccc(C(N)=O)cc3c2C1 [Frovatriptan]
Effect (HTR1B): Activation

NC(=O)CNC1Cc2ccccc2C1 [Indantadol]
Effect (NR2A; [4]): Inhibition

O=[N+]([O-])O[C@H]1CO[C@H]2[C@@H]1OC[C@H]2O[N+](=O)[O-] [Isosorbide dinitrate]
Effect (Guanylatecyclase A(NPR1)): Inhibition

CNC1(c2ccccc2Cl)CCCCC1=O (stereo not shown) [Ketamine]
Effect (NR2A/NR3A): Inhibition
Effect (NR2A): Inhibition

C[C@@H]1CN(C(=O)CN2CC(C)(C)OC[C@H]2C(=O)Nc2cc(Cl)cc3c2[nH]c2cnccc23)C[C@H](C)O1 [MLN0415]
Effect (IKK-beta): Inhibition

CC12CC3CC(C)(C1)CC(N)(C3)C2 [Memantine]
Effect (NR2A/NR3A; Target NR2A/NR3A, Gene Symbol GRIN2A): Inhibition
Effect (NR2A; [4]): Inhibition

CC(=O)[O-].CC(=O)[O-].CCc1c(CC)c2cc3nc(cnc4cc(OCCOCCOCCOC)c(OCCOCCOCCOC)cc4ncc4nc(cc1[n-]2)C(CCCO)=C4C)C(C)=C3CCCO.O.[Gd+3] [Motexafin gadolinium]
Effect (TXNRD1; Target TXNRD1, Gene Symbol TXNRD1): Inhibition

CNS(=O)(=O)CCc1ccc2[nH]cc(C3CCN(C)CC3)c2c1 [Naratriptan]
Effect (HTR1B): Activation

CC(Cc1ccccc1)(NC(=O)CN)c1ccccc1 (stereo not shown) [Remacemide]
Effect (NR2A; [4]): Inhibition

CO[C@H]1C[C@@H]2CC[C@@H](C)[C@@](O)(O2)C(=O)C(=O)N2CCCC[C@H]2C(=O)O[C@H]([C@H](C)C[C@@H]2CC[C@@H](OP(C)(C)=O)[C@H](OC)C2)CC(=O)[C@H](C)/C=C(\C)[C@@H](O)[C@@H](OC)C(=O)[C@H](C)C[C@H](C)/C=C/C=C/C=C/1C [Ridaforolimus]
Effect (mTOR): Inhibition

CN(C)CCc1c[nH]c2ccc(Cn3cncn3)cc12 [Rizatriptan]
Effect (HTR1B): Activation

CN1CCN(c2ncc(-c3cc(Cl)cc(Cl)c3Cl)c(N)n2)CC1 [Sipatrigine]
Effect (SCN2A): Inhibition

C=CCN(/C=C1/C(=O)O[C@H](COC)[C@@]2(C)C1=C(O)C(=O)C1=C2[C@H](OC(C)=O)C[C@]2(C)C(=O)CC[C@@H]12)CC=C [Sonolisib]
Effect [1]: Inhibition

Nc1nc(N)c2nc(-c3cccc(O)c3)c(-c3cccc(O)c3)nc2n1 [TG100115]
Effect ([1]; Target PI3K catclass IB(p110-gamma), Gene Symbol PIK3CG): Inhibition

CO[C@H]1C[C@@H]2CC[C@@H](C)[C@@](O)(O2)C(=O)C(=O)N2CCCC[C@H]2C(=O)O[C@H]([C@H](C)C[C@@H]2CC[C@@H](OC(=O)C(C)(CO)CO)[C@H](OC)C2)CC(=O)[C@H](C)/C=C(\C)[C@@H](O)[C@@H](OC)C(=O)[C@H](C)C[C@H](C)/C=C/C=C/C=C/1C [Temsirolimus intracellular, Temsirolimus]
Effect (mTOR): Inhibition

NC1=N[C@H](O)[C@H]2[C@H]3O[C@]4(O)O[C@@H]([C@@H](O)[C@@]2(N1)[C@@H]4O)[C@]3(O)CO [Tetrodotoxin]
Effect (SCN2A): Inhibition

COc1cc(O)c(CC=C(C)C)c(O)c1C(=O)/C=C/c1ccc(O)cc1 [Xanthohumol]
Effect (IKK-beta): Inhibition

CC(C)(C)c1cc(C(C)(C)C)c(NC(=O)c2c[nH]c3ccccc3c2=O)cc1O [ivacaftor]
mean change in ppFEV1 [2, 5]: 6.7 (95% CI 4.9-8.5)
mean change in weight [2, 5]: 2.5 kg
mean decline in sweat chloride [2, 5]: −54 mEq
quality of life scores [2, 5]: improvement
rate of hospitalization ([2]; six months after drug initiation, p<0.001): decreased
portion of subjects with physiologic CFTR correction that did not have improvement in FEV1>5% (poor lung function response) ([2]; subjects with sweat chloride shifts by −40 to −80 mEq/L): ~50%
BMI ([3]; longer term follow up): maintain improved
hospitalizations ([3]; longer term follow up): decreasing
pulmonary exacerbations ([3]; longer term follow up): decreasing
lung function decline ([3]; versus patients untreated with CFTR modulators): slowed

Nesiritide
Effect (Guanylatecyclase A(NPR1)): Activation
